Values quoted from earlier work as cited in patent US20190367426A1, “LIQUID UREASE INHIBITOR FORMULATIONS” (YARA INTERNATIONAL ASA, priority 2017, published 2019).

System: rat

| Structure (SMILES) | toxicity oral rat LD50 |
| --- | --- |
| CCCCOCCOCCO [DEGMBE, Diethylene glycol monobutyl ether] | 5660 mg/kg |
| COCCOCCO [DEGMME, Diethylene glycol monomethyl ether] | 6450 mg/kg |
